Starred links: 1 amine or outer side, 2 acyl side, 3 side chain; linkers in the order of their positions; H or OH if unused. Positions of bridges follow the written chain, without caps; N, C: chain ends. Non-standard residues stand in square brackets, D forms with d. Residues, ends and D or L forms follow the SMILES beside them. No end group written: not given here. *: point of attachment. Leu(3R-OH,Nα-propionyl) = CCC(=O)N[C@H](C(=O)*)[C@H](O)C(C)C; X1 = CC(C)[C@@H](O[*:3])[C@H](N[*:1])C(=O)[*:2]; NMeT = CN[C@H](C(=O)O)[C@@H](C)O; dPhLac = O=C(O)[C@H](O)Cc1ccccc1; NMeA = CN[C@@H](C)C(=O)O; NMeDha = C=C(NC)C(=O)O

What all share (format): cell-based
Experiment [1] deals with T1, AT1R (Homo sapiens, UniProt P30556).
T1 sequence (P30556 with tags, fused parts or gaps): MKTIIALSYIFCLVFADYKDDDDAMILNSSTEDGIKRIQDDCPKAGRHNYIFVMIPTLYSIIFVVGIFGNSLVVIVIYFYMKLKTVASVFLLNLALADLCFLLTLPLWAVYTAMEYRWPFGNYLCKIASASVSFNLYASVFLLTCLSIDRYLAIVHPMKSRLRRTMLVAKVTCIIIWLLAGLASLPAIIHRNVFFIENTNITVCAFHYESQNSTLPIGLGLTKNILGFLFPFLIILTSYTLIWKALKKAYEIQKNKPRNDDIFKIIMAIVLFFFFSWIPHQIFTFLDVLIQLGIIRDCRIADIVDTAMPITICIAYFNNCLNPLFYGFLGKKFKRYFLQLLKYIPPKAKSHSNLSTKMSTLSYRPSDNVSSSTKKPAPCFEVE
Nature of the experiment: AT1R sorting to rab4 vesicles BRET (AT1R-RlucII/rGFP-rab4). Further details: expressed in transfected cells; host or cells: HEK293SL (HEK293 for the screen). As to the method: (§1) BRET measurements for FIGS. 1B to 9D, 25D to 25F. The following day of transfection, cells were detached and replated onto poly-ornithine coated white 96-well plate at a density of 25,000 cells per well. The next day, cells were washed once with pre-warmed Tyrode's buffer (140 mM NaCl, 2.7 mM KCl, 1 mM CaCl2, 12 mM NaHCO3, 5.6 mM D-glucose, 0.5 mM MgCl2, 0.37 mM NaH2PO4, 25 mM HEPES, pH 7.4), and then stimulated with either various concentrations of ligands in Tyrode's buffer for the indicated time, or single concentration of ligands for various times at 37° C. For recycling experiment, after stimulating the cells with the ligands for 30 min at 37° C., they were washed either three times with ice-cold Tyrode's buffer or once with Tyrode's buffer/three times with acid (50 mM sodium citrate, pH 4.0)/two times with Tyrode's buffer. All the washing steps were performed on ice. […] The cell-permeable substrate, coelenterazine 400a was added at a final concentration of 5 μM in Tyrode's buffer 3-4 min before BRET measurements. […] The BRET signal was determined by calculating the ratio of the light intensity emitted by the GFP10 or rGFP over the light intensity emitted by the RlucII. All the BRET measurements were performed in triplicate at 37° C.
For orientation: BRET reads energy transfer from a luciferase to a nearby fluorophore.

For experiment [2], the target named is T1, AT1R. Briefly: AT1R endocytosis BRET at plasma membrane (AT1R-RlucII/lyn-rGFP). Further details: signal peptide-Flag-human AT1R (spFlag-AT1R); signal peptide (N); expressed in transfected cells; host or cells: HEK293SL (HEK293 for the screen). The protocol: as §1
Data Analysis. Estimation of the t1/2 and the EC50 values for ligand-mediated endocytosis were calculated using the GraphPad® Prism curve fitting program The curves presented throughout this study, representing the best fits, and were generated using this GraphPad® Prism program as well.

For experiment [3], the target named is T1, AT1R. Nature of the experiment: AT1R sorting to rab11 vesicles BRET (AT1R-RlucII/rGFP-rab11). Further details: signal peptide-Flag-human AT1R (spFlag-AT1R); signal peptide (N); expressed in transfected cells; host or cells: HEK293SL (HEK293 for the screen). The protocol: BRET measurements for FIGS. 1B to 9D, 25D to 25F. The following day of transfection, cells were detached and replated onto poly-ornithine coated white 96-well plate at a density of 25,000 cells per well. The next day, cells were washed once with pre-warmed Tyrode's buffer (140 mM NaCl, 2.7 mM KCl, 1 mM CaCl2, 12 mM NaHCO3, 5.6 mM D-glucose, 0.5 mM MgCl2, 0.37 mM NaH2PO4, 25 mM HEPES, pH 7.4), and then stimulated with either various concentrations of ligands in Tyrode's buffer for the indicated time, or single concentration of ligands for various times at 37° C. For recycling experiment, after stimulating the cells with the ligands for 30 min at 37° C., they were washed either three times with ice-cold Tyrode's buffer or once with Tyrode's buffer/three times with acid (50 mM sodium citrate, pH 4.0)/two times with Tyrode's buffer. All the washing steps were performed on ice. Cells were then further incubated with Tyrode's buffer at 37° C. in a water bath for 45 min. […] Measurements were performed by using Synergy2 (BioTek®) microplate reader with a filter set of 410±80 nm and 515±30 nm for detecting the RlucII Renilla luciferase (donor) and GFP10 or rGFP (acceptor) light emissions, respectively. The BRET signal was determined by calculating the ratio of the light intensity emitted by the GFP10 or rGFP over the light intensity emitted by the RlucII. […]

Turning to `C=C1C(=O)N[C@@H](C)C(=O)N(C)[C@@H](C)C(=O)N[C@@H]([C@H](OC(=O)[C@@H](NC(=O)CC)[C@H](O)C(C)C)C(C)C)C(=O)N(C)[C@@H]([C@@H](C)OC)C(=O)O[C@H](C(C)C)[C@H](NC(C)=O)C(=O)O[C@H](Cc2ccccc2)C(=O)N1C` [Ubo-QIC] (Ac-[X1][dPhLac][NMeDha]A[NMeA][X1](Leu(3R-OH,Nα-propionyl))[NMeT](Me); ester 1-C), the “effect on AngII-bound AT1R in Rab4 vesicles” value at AT1R [1] (100 nM Ubo, 100 nM AngII 10 min) was “increased AngII-bound AT1R in Rab 4 and Rab11 vesicles”. Also, the “effect on AngII-dependent AT1R internalization” value on AT1R [2] (100 nM Ubo, 30 min pre-incubation) is given as “did not prevent”. For the same compound, the “effect on AngII-bound AT1R in Rab11 vesicles” value on AT1R [3] (100 nM Ubo, 100 nM AngII 30 min) is “increased AngII-bound AT1R in Rab 4 and Rab11 vesicles”.
As to “DRVYVHPG [DVG, [Asp^1,Val^5, Gly^8]-AngII]”, the “time at which BRET signal plateaued” value at AT1R [1] (100 nM AngII, 100 nM SI, 1 μM DVG) amounted to 10 min. At AT1R [2] (FIG. 6B, 30 min, read-out: potency to promote AT1R internalization), the EC50 worked out at 75 nM. For the same compound, the “BRET signal relative to AngII” value at AT1R [3] (100 nM SI, 1 μM DVG) is on record as “overall higher BRET signals”.

The values are drawn from US10584159B2, “Renilla based biosensors for monitoring biomolecule localization and trafficking in cells” (The Royal Institution for the Advancement of …, priority 2014, dated 2020).
